Measurements reported in PubChem BioAssay (NCI).
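Cells were grown in 96-well plates and exposed to each compound for 48 hours at five concentrations; endpoints were interpolated linearly between bracketing concentrations, or set to the highest concentration if not reached. GI50: concentration for 50% inhibition of growth. TGI is the concentration that stops growth completely.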

Test system: MDA-MB-468 breast
Experiment: NCI-60 cell line screen, 48 h

Structure (SMILES) | GI50 | TGI
CCOCC(=O)N[C@H]1CCc2cc(OC(=O)COCC)c(OC)c(OC)c2-c2ccc(SC)c(=O)cc21 | 0.0714 µM | > 100 µM
Cc1cc(O)ccc1O | 13.3 µM | 27.3 µM
O=C1CSC(=S)N1Cc1cccnc1 | 3.82 µM | 17 µM
N#Cc1c(NC(=O)c2cccc3ccccc23)sc2c1CCCC2 | 0.154 µM | > 7.22 µM
CC1(C)N=C(N)N=C(N)N1c1ccc(OCC(=O)N2CCOCC2)c(Cl)c1 | 1.23 µM | > 100 µM
COc1cc(Nc2ncc3c(C)nc(-c4cccc(Oc5ccccc5)c4)n3n2)cc(OC)c1OC | 2.98 µM | 18.4 µM
COc1cc(OC)c2cc(C(=O)O)c(=O)oc2c1 | > 100 µM | > 100 µM
COc1ccc(/C(=N\O)c2cc(OC)c(OC)c(OC)c2)c(OC)c1N | 3.99 µM | > 100 µM
O=C1/C(=C/c2ccc(Cl)cc2)CN(Cc2cn(CCNc3ccnc4cc(Cl)ccc34)nn2)C/C1=C\c1ccc(Cl)cc1 | 0.234 µM | 0.644 µM
CC(=O)Nc1ccc2c(c1)C(=O)c1cccc(F)c1-2 | 15.2 µM | 45.8 µM
COc1ccc(Cn2cnc3cc(C(=O)Nc4cccc5ccccc45)ccc32)c(OC)c1 | 0.0358 µM | 2.42 µM
O=C(Nc1ccc(Cl)cc1)c1ccc([N+](=O)[O-])o1 | 3.08 µM | 14.9 µM
O=C(Nc1cccc([N+](=O)[O-])c1)c1ccc2ccccc2c1O | 3.38 µM | 71.3 µM
COc1ccc2cc3[n+](cc2c1OC)CCc1cc2c(cc1-3)OCO2 | 0.675 µM | 6.78 µM
COc1cc(C(=O)/C=C/c2c(-c3ccc(F)cc3)nc3ncccn23)cc(OC)c1OC | 2.75 µM | 6.89 µM
O=C(CC(O)c1ccncc1)c1ccccc1 (configuration not stated) | 24.3 µM | > 100 µM
Cc1cc(NCCCCNc2ccnc3cc(Cl)ccc23)nc(Nc2ccc(C(=O)N3CCCC3)cc2)n1 | 1.82 µM | 4.04 µM
CCCCCCCCCCCCSC(=NC)NC | 1.47 µM | 3.14 µM
CS(=O)(=O)Nc1cccc(-c2ccc3c(NC(=O)C4CC4)n[nH]c3c2)c1 | 0.622 µM | 24.8 µM
Cc1ccc(NSc2ccccc2[N+](=O)[O-])cc1 | 0.57 µM | 16.3 µM
CCC1=Cc2cc(OC)ccc2OC12C=Cc1cc(OC)ccc1O2 (configuration not stated) | 0.436 µM | > 100 µM

Structure (SMILES) | GI50 | TGI
O=c1[nH]ccc2nc(-c3ccc(CN4CCC(c5nc(-c6ccccn6)n[nH]5)CC4)cc3)c(-c3ccccc3)cc12 | 0.0887 µM | 7.14 µM
O=C1/C(=C/c2ccc([N+](=O)[O-])o2)Oc2ccccc21 | 1.17 µM | 2.94 µM
O=C(NCC(=O)N1CC[C@H](NC2CCC(O)(c3ccc(-c4ncccn4)cn3)CC2)C1)c1cccc(C(F)(F)F)c1 (some centres not stated) | 19.6 µM | 95.4 µM
NC(N)=N/N=C(/c1ccccc1)c1ccc(Cl)cc1 | 2.4 µM | 13 µM
COc1ccc(Cn2cc3c(c2-c2ccc(O)cc2)CCc2cnoc2-3)cc1 | 0.245 µM | 1.25 µM
CC(C)=CCc1ccc(O)c(=O)cc1C(C)C | 0.868 µM | 5.36 µM
Cn1ccnc1C(=O)/C=C/c1ccc(C(=O)Nc2ccccc2O)cc1 | 1.6 µM | 3.67 µM
CCCCCCCCCCCCCCCCOC(=O)c1c(C)[nH]c(/C=C2\N=C(c3ccc[nH]3)C=C2OC)c1C | 1.66 µM | 5.29 µM
COc1ccc2c(c1)C(=O)/C(=C/c1ccc([N+](=O)[O-])s1)O2 | 0.291 µM | 1.36 µM
CCN(CC)CCCNc1nc2ccccc2c2c(=O)c3cc(Cl)ccc3sc12 | 1.59 µM | 4.85 µM
Cc1ccc(/C=C/C(=O)c2ccc(N)cc2)c(C)c1 | 2.41 µM | 5.13 µM
COc1cc2c(cc1OCCCCCn1c(-c3ccco3)nc3ccccc31)N=C[C@@H]1CCCN1C2=O | < 0.01 µM | < 0.01 µM
C=C(C)[C@@H]1CC[C@]2(C(=O)O)CC[C@]3(C)[C@H](CC[C@@H]4[C@@]5(C)C[C@@H](CC#Cc6ccc(Br)cc6)C(=O)C(C)(C)[C@@H]5CC[C@]43C)[C@@H]12 | 7.25 µM | 33.5 µM
CC1CC(C)/C(=N/NC(N)=O)C(C(O)CC2CCC(=O)NC2=O)C1 (configuration not stated) | 9.15 µM | > 100 µM
COc1cc(C2CC(c3ccc(Nc4ccnc5cc(Cl)ccc45)cc3)=NN2C=O)cc(OC)c1OC (configuration not stated) | 1.83 µM | 4.38 µM
COc1ccc(N(C)c2nc(Cl)nc3ccn(C)c23)cc1 | < 0.01 µM | > 100 µM
O=C(N/N=c1/ccoc2cccnc12)N1CCN(c2ncccn2)CC1 | < 0.01 µM | 1.34 µM
O=C1Nc2ccccc2/C1=C/c1cn(C(=O)c2c(Cl)cccc2Cl)c2ccccc12 | 4.52 µM | 20.1 µM
O=c1oc2ccc(F)cc2c(=O)n1-c1ccc(Cl)cc1F | 1.51 µM | 5.31 µM
O=C(Nc1cccnc1)c1cccc([N+](=O)[O-])c1 | > 100 µM | > 100 µM
